Results on 26 compounds are retold here after patent US11702404B2, “GLP-1R modulating compounds” (priority 2019, dated 2023).

Data set [1] can be described thus: Microsomal stability, human liver microsomes (predicted hepatic clearance). As to conditions: predicted from in vitro microsomal stability data.
In the next data set the target is GLP-1R (Homo sapiens, UniProt P43220). Put plainly: GLP-1R activation: cAMP increase in CHO cells stably expressing GLP-1R. As to conditions: for pEC50: cAMP increase, CHO cells stably expressing GLP-1R, 10 point dose response, 30 minutes incubation, read-out: EC50. It is filed as cell-based.

pEC50: −log10 of the molar value. Read-outs that look alike come from different tables or passages of the source. Bounds are passed on as bounds.

GLP-1R, sequence (P43220 24-463): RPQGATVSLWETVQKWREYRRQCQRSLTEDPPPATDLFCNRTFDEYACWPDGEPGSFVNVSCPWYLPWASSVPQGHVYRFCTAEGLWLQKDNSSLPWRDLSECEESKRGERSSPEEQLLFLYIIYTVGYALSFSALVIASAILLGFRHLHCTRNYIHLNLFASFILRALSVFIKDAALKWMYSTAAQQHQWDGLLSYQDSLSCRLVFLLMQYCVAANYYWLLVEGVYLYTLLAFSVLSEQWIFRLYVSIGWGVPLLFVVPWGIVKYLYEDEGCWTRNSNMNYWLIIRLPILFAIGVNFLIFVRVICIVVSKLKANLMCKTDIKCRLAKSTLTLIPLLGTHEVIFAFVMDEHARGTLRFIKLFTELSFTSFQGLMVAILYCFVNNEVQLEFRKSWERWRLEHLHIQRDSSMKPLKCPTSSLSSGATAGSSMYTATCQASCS

As for `COCCn1c(Cc2ccc(-c3ncc(F)c(OCc4ccc(C#N)cc4F)n3)cc2F)nc2ccc(C(=O)O)cc21` [Example 126, 2-(4-(4-((4-cyano-2-fluorobenzyl)oxy)-5-fluoropyrimidin-2-yl)-2-fluorobenzyl)-1-(2-methoxyethyl)-1H-benzo[d]imidazole-6-carboxylic acid], the “Predicted Hepatic Clearance (Pred. Cl.)” value in data set [1] is 4.67 mL/min/kg. In addition, the pEC50 on GLP-1R was 8.43.
In the same order, the values of `COCCn1c(Cc2ccc(-c3cccc(OCc4cccnc4[N+](=O)[O-])n3)cc2F)nc2ccc(C(=O)O)cc21` [Example 596, 2-(2-fluoro-4-(6-((2-nitropyridin-3-yl)methoxy)pyridin-2-yl)benzyl)-1-(2-methoxyethyl)-1H-benzo[d]imidazole-6-carboxylic acid] are 19.5 mL/min/kg and 6.09.
The matching figures for `COCCn1c(Cc2ccc(-c3cc(C#N)cc(OCc4ccc(C#N)cc4F)n3)cc2F)nc2ccc(C(=O)O)cc21` [Example 85, 2-(4-(4-cyano-6-((4-cyano-2-fluorobenzyl)oxy)pyridin-2-yl)-2-fluorobenzyl)-1-(2-methoxyethyl)-1H-benzo[d]imidazole-6-carboxylic acid]: 3.67 mL/min/kg and 8.31.
The matching figures for `Cc1cc(-c2ccc(F)c(OCc3ccc(C#N)cc3F)n2)ccc1Cc1nc2ccc(C(=O)O)cc2n1C[C@@H]1CCO1` [Example 686]: 4 mL/min/kg and 9.26.
Turning to `N#Cc1ccc(COc2cccc(-c3ccc(Cc4nc5ccc(C(=O)O)cc5n4CC4(CO)CC4)c(F)c3)n2)c(F)c1` [Example 375, 2-(4-(6-((4-cyano-2-fluorobenzyl)oxy)pyridin-2-yl)-2-fluorobenzyl)-1-((1-(hydroxymethyl)cyclopropyl)methyl)-1H-benzo[d]imidazole-6-carboxylic acid], the “Predicted Hepatic Clearance (Pred. Cl.)” value in data set [1] was 4.25 mL/min/kg. Besides, at GLP-1R, the pEC50 is 8.26.
For `COCCn1c(Cc2ccc(-c3cccc(OCc4ccc(C#N)cc4F)c3)cc2F)nc2ccc(C(=O)O)cc21` [Example 6, 2-((3′-((4-cyano-2-fluorobenzyl)oxy)-3-fluoro-[1,1′-biphenyl]-4-yl)methyl)-1-(2-methoxyethyl)-1H-benzo[d]imidazole-6-carboxylic acid], the “Predicted Hepatic Clearance (Pred. Cl.)” value in data set [1] is 3.5 mL/min/kg. In addition, at GLP-1R, the pEC50 was 7.25.
The matching figures for `COCCn1c(Cc2ccc(-c3cccnc3OCc3ccc(C#N)cc3F)c(F)c2)nc2ccc(C(=O)O)cc21` [Example 108, 2-(4-(2-((4-cyano-2-fluorobenzyl)oxy)pyridin-3-yl)-3-fluorobenzyl)-1-(2-methoxyethyl)-1H-benzo[d]imidazole-6-carboxylic acid]: 4.33 mL/min/kg and 6.41.
In the same order, the values of `O=C(O)c1ccc2nc(Cc3ccc(-c4cccc(OCc5ccc(C(F)(F)F)nc5)n4)c(F)c3)n(C[C@@H]3CCO3)c2c1` [Example 655] are 5.33 mL/min/kg and 8.90.
The matching figures for `Cn1c(Cc2ccc(-c3cccc(OCc4ccc(C#N)cc4F)n3)cc2F)nc2ccc(C(=O)O)cc21` [Example 354, 2-(4-(6-((4-cyano-2-fluorobenzyl)oxy)pyridin-2-yl)-2-fluorobenzyl)-1-methyl-1H-benzo[d]imidazole-6-carboxylic acid]: 7.5 mL/min/kg and 6.84.
Take `COCCn1c(Cc2ccc(-c3cccc(OCc4cccc(-c5ccccc5)c4)n3)cc2F)nc2ccc(C(=O)O)cc21` [Example 504, 2-(4-(6-([1,1′-biphenyl]-3-ylmethoxy)pyridin-2-yl)-2-fluorobenzyl)-1-(2-methoxyethyl)-1H-benzo[d]imidazole-6-carboxylic acid]: the “Predicted Hepatic Clearance (Pred. Cl.)” value in data set [1] is 3.5 mL/min/kg. Besides, the negative-log EC50 (pEC50) on GLP-1R is 7.55.
In the same order, the values of `N#Cc1ccc(COc2cccc(-c3ccc(Cc4nc5ccc(C(=O)O)cc5n4C[C@@H]4CCO4)cc3F)n2)c(F)c1` [Example 523, (S)-2-(4-(6-((4-cyano-2-fluorobenzyl)oxy)pyridin-2-yl)-3-fluorobenzyl)-1-(oxetan-2-ylmethyl)-1H-benzo[d]imidazole-6-carboxylic acid] are 5 mL/min/kg and 9.29.
In the same order, the values of `N#CCC1(Cn2c(Cc3ccc(-c4ccc(F)c(OCc5ccc(C#N)cc5F)n4)c(F)c3)nc3ccc(C(=O)O)cc32)CC1` [Example 95, 2-(4-(6-((4-cyano-2-fluorobenzyl)oxy)-5-fluoropyridin-2-yl)-3-fluorobenzyl)-1-((1-(cyanomethyl)cyclopropyl)methyl)-1H-benzo[d]imidazole-6-carboxylic] are 6.7 mL/min/kg and 9.59.
The matching figures for `Cc1cc2nc(Cc3cc(F)c(-c4cccc(OCc5ccc(C#N)cc5F)n4)cc3F)n(C[C@@H]3CCO3)c2cc1C(=O)O` [Example 921]: 2.83 mL/min/kg and 9.48.
In the case of `N#Cc1ccc(COc2cccc(-c3ccc(Cc4nc5ccc(C(=O)O)cc5n4C4(CF)CC4)cc3F)n2)c(F)c1` [Example 209, 2-(4-(6-((4-cyano-2-fluorobenzyl)oxy)pyridin-2-yl)-3-fluorobenzyl)-1-(1-(fluoromethyl)cyclopropyl)-1H-benzo[d]imidazole-6-carboxylic acid], the “Predicted Hepatic Clearance (Pred. Cl.)” value in data set [1] was 8.5 mL/min/kg. Also, the pEC50 at GLP-1R was 7.31.
The matching figures for `N#Cc1ccc(COc2cccc(-c3ccc(Cc4nc5c(F)cc(C(=O)O)cc5n4CC4(C#N)CC4)c(F)c3)n2)c(F)c1` [Example 315, 2-(4-(6-((4-cyano-2-fluorobenzyl)oxy)pyridin-2-yl)-2-fluorobenzyl)-1-((l-cyanocyclopropyl)methyl)-4-fluoro-1H-benzo[d]imidazole-6-carboxylic acid]: 5.67 mL/min/kg and 8.68.
In the same order, the values of `N#Cc1ccc(COc2nc(-c3cc(F)c(Cc4nc5c(F)cc(C(=O)O)cc5n4C[C@@H]4CCO4)cc3F)ccc2F)cn1` [Example 779] are 1.83 mL/min/kg and 9.77.
In the same order, the values of `COc1cc(Cl)ccc1COc1nccc(-c2ccc(Cc3nc4ccc(C(=O)O)cc4n3CC3(CF)CC3)cc2F)n1` [Example 75, 2-(4-(2-((4-chloro-2-methoxybenzyl)oxy)pyrimidin-4-yl)-3-fluorobenzyl)-1-((1-(fluoromethyl)cyclopropyl)methyl)-1H-benzo[d]imidazole-6-carboxylic acid] are 13.8 mL/min/kg and 9.22.
As to `O=C(O)c1ccc2nc(Cc3cc(F)c(-c4ccnc(OCc5ccc(C(F)F)cc5F)n4)cc3F)n(C[C@@H]3CCO3)c2c1` [Example 801], in data set [1], the “Predicted Hepatic Clearance (Pred. Cl.)” value was 3.17 mL/min/kg. In addition, the pEC50 on GLP-1R is 9.92.
As to `N#Cc1ccc(COc2cccc(-c3ccc(Cc4nc5ccc(C(=O)NS(=O)(=O)C6CC6)cc5n4CC4(CF)CC4)c(F)c3)n2)c(F)c1` [Example 57, 2-(4-(6-((4-cyano-2-fluorobenzyl)oxy)pyridin-2-yl)-2-fluorobenzyl)-N-(cyclopropylsulfonyl)-1-((1-(fluoromethyl)cyclopropyl)methyl)-1H-benzo[d]imidazole-6-carboxamide], the “Predicted Hepatic Clearance (Pred. Cl.)” value in data set [1] was under 1.83 mL/min/kg. At GLP-1R, the negative logarithm of the EC50 (pEC50) was 8.17.
The matching figures for `N#Cc1ccc(COc2nc(-c3ccc(Cc4nc5ccc(C(=O)O)cc5n4C[C@@H]4CCO4)cc3F)ccc2F)c(F)c1` [Example 125, (S)-2-(4-(6-((4-cyano-2-fluorobenzyl)oxy)-5-fluoropyridin-2-yl)-3-fluorobenzyl)-1-(oxetan-2-ylmethyl)-1H-benzo[d]imidazole-6-carboxylic acid]: 2.58 mL/min/kg and 9.47.
Take `C[C@@H](O)Cn1c(Cc2cc(F)c(-c3cccc(OCc4ccc(C#N)cc4F)n3)cc2F)nc2ccc(C(=O)O)cc21` [Example 724]: the “Predicted Hepatic Clearance (Pred. Cl.)” value in data set [1] is 6.67 mL/min/kg. Also, at GLP-1R (EC50 (nM)), the half-maximal effective concentration (EC50) turned out to be 15.1 nM.
On to `COc1cc(C#N)ccc1COc1cccc(-c2ccc(Cc3nc4ccc(C(=O)O)cc4n3CC3(CF)CC3)c(F)c2)n1` [Example 367, 2-(4-(6-((4-cyano-2-methoxybenzyl)oxy)pyridin-2-yl)-2-fluorobenzyl)-1-((1-(fluoromethyl)cyclopropyl)methyl)-1H-benzo[d]imidazole-6-carboxylic acid], for which the “Predicted Hepatic Clearance (Pred. Cl.)” value in data set [1] is 10.8 mL/min/kg. Moreover, the pEC50 on GLP-1R is 9.07.
The matching figures for `COCCn1c(Cc2c(F)cc(-c3ccnc(OCc4ccc(C#N)cc4F)n3)c(F)c2F)nc2ccc(C(=O)O)cc21` [Example 405, 2-(4-(2-((4-cyano-2-fluorobenzyl)oxy)pyrimidin-4-yl)-2,3,6-trifluorobenzyl)-1-(2-methoxyethyl)-1H-benzo[d]imidazole-6-carboxylic acid]: 5.5 mL/min/kg and 8.77.
Turning to `N#Cc1ccc(COc2cccc(-c3cc(F)c(Cc4nc5ccc(C(=O)O)cc5n4C4COCCOC4)cc3F)n2)c(F)c1` [Example 702], in data set [1], the “Predicted Hepatic Clearance (Pred. Cl.)” value is 2.67 mL/min/kg. In addition, the pEC50 on GLP-1R was 8.09.
The matching figures for `N#Cc1ccc(COc2cccc(-c3cc(F)c(Cc4nc5c(F)cc(C(=O)O)cc5n4CC45CC(CO4)C5)cc3F)n2)c(F)c1` [Example 649]: 5.83 mL/min/kg and 9.70.
The matching figures for `COCCn1c(Cc2ccc(-c3cccc(OCc4ccc(C#Cc5cncnc5)cc4F)n3)cc2F)nc2ccc(C(=O)O)cc21` [Example 842, 2-(2-fluoro-4-(6-((2-fluoro-4-(pyrimidin-5-ylethynyl)benzyl)oxy)pyridin-2-yl)benzyl)-1-(2-methoxyethyl)-1H-benzo[d]imidazole-6-carboxylic acid]: 1.83 mL/min/kg and 8.33.
